Reference: patent publication US6914045B2, “Glycopeptide antibiotics” (Wyeth Holdings Corporation, priority 2001, dated 2005)
In brackets after ≈: the same amount, converted by molar mass.

Legend:
[1] = clinical pathology (serum clinical chemistry) in mice; assay type: in vivo; conditions: CD-1 mice, 20 mg/kg intravenously daily for 9 days, sera day 10
Experimental: 20-day-old CD-1 mice were divided into a vehicle control group (5 mice) and a treatment group (5 mice). Samples of glycopeptide antibiotics were administered at 20 mg/kg intravenously daily for 9 days.

[2] = anatomic pathology (histopathology of heart and kidney) in mice; assay type: in vivo; conditions: CD-1 mice, 20 mg/kg intravenously daily for 9 days, necropsy day 10, microscopic histopathology
Experimental: Samples of tissues from necropsied mice were formalin-fixed, paraffin-embedded, sectioned, stained with hematoxylin and eosin, and examined microscopically. Histopathologic findings were recorded. These findings were subjectively graded on a scale corresponding to slight, mild, moderate, marked and severe as compared to untreated controls.

[3] = test system: Enterococcus sp.; assay: in vitro antibacterial evaluation, MIC by broth dilution; assay type: cell-based; conditions: broth dilution, 18 hours at 35° C.
How it was run: (§1)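 MIC, the lowest antibiotic concentration preventing growth, was read across 64-0.06 μg/mL with 5×10^5 CFU/mL inoculum. Method followed NCCLS M7-A2 broth dilution using Mueller-Hinton II; Gram-positive strains covered recent methicillin-, penicillin- and/or vancomycin-resistant clinical isolates.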

[4] = test system: Streptococcus sp.; assay: as above; assay type: cell-based; conditions: broth dilution, 18 hours at 35° C.
How it was run: as §1

[5] = test system: Staphylococcus sp.; assay: as above; assay type: cell-based; conditions: broth dilution, 18 hours at 35° C.
How it was run: as §1

[6] = test system: Escherichia coli; assay: as above; assay type: cell-based; conditions: 18 hours at 35° C.
How it was run: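 MIC is the lowest antibiotic concentration (tested 64-0.06 μg/mL) preventing growth of a 5×10^5 CFU/mL inoculum. Determined by broth dilution in Mueller-Hinton II medium following NCCLS standard M7-A2.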

CC(c1ccccc1)C1NC(=O)CNC(=O)C(CO)NC(=O)C(C(O)C2CN(CCCCCCCCCCCCO)C(=N)N2C2OC(CO)C(O)C(O)C2O)NC(=O)C(C(O)C2CNC(=N)N2)NC(=O)C(Cc2ccc(OC3OC(CO)C(OC4OC(CO)C(O)C(O)C4O)C(O)C3O)cc2)NC1=O (stereo not drawn) [Example 61, Cyclo[glycyl-β-methylphenylalanyl-O-(4-O-hexopyranosylhexopyranosyl)tyrosl-3-(2-iminoimidazolidin-4-yl)seryl-3-[3-hexopyranosyl-1-(12-hydroxydodecyl)-2-iminoimidazolidin-4-yl]-serylseryl]]
Clinical Chemistry (Day 10) % of Control, BUN [1]: +157% | Clinical Chemistry (Day 10) % of Control, Creatinine [1]: +122% | Anatomical Pathology (Day 10), Heart [2]: 0 | Anatomical Pathology (Day 10), Kidney [2]: +++ | MIC Enterococcus avium (GC 4558) ([3]; Enterococcus avium (GC 4558)): 64 µg/mL (≈ 43.3 µM) | MIC Enterococcus faecalis (ATCC 29212) ([3]; Enterococcus faecalis (ATCC 29212)): 128 µg/mL (≈ 86.5 µM) | MIC Enterococcus faecalis (GC 4552) ([3]; Enterococcus faecalis (GC 4552)): 128 µg/mL (≈ 86.5 µM) | MIC Enterococcus faecalis (GC 4553) ([3]; Enterococcus faecalis (GC 4553)): 128 µg/mL (≈ 86.5 µM) | MIC Enterococcus faecalis (GC 4554) ([3]; Enterococcus faecalis (GC 4554)): 128 µg/mL (≈ 86.5 µM) | MIC Enterococcus faecalis (GC 6189) ([3]; Enterococcus faecalis (GC 6189)): 128 µg/mL (≈ 86.5 µM) | MIC Enterococcus faecium (GC 2243) ([3]; Enterococcus faecium (GC 2243)): >128 µg/mL | MIC Enterococcus faecium (GC 4556) ([3]; Enterococcus faecium (GC 4556)): 128 µg/mL (≈ 86.5 µM) | MIC Enterococcus faecium (GC 4557) ([3]; Enterococcus faecium (GC 4557)): 128 µg/mL (≈ 86.5 µM) | MIC Enterococcus avium (GC 4558) [3]: 64 µg/mL (≈ 43.3 µM) | MIC Enterococcus faecalis (ATCC 29212) [3]: 128 µg/mL (≈ 86.5 µM) | MIC Enterococcus faecalis (GC 2242) [3]: 128 µg/mL (≈ 86.5 µM) | MIC Enterococcus faecalis (GC 2691) [3]: 128 µg/mL (≈ 86.5 µM) | MIC Enterococcus faecalis (GC 3059) [3]: 128 µg/mL (≈ 86.5 µM) | MIC Enterococcus faecalis (GC 4552) [3]: 128 µg/mL (≈ 86.5 µM) | MIC Enterococcus faecalis (GC 4553) [3]: 128 µg/mL (≈ 86.5 µM) | MIC Enterococcus faecalis (GC 4554) [3]: 128 µg/mL (≈ 86.5 µM) | MIC Enterococcus faecalis (GC 6189) [3]: 128 µg/mL (≈ 86.5 µM) | MIC Enterococcus faecium (GC 2243) [3]: >128 µg/mL | MIC Enterococcus faecium (GC 4556) [3]: 128 µg/mL (≈ 86.5 µM) | MIC Enterococcus faecium (GC 4557) [3]: 128 µg/mL (≈ 86.5 µM) | MIC Enterococcus faecalis (GC 2242) ([3]; strain GC 2242): 128 µg/mL (≈ 86.5 µM) | MIC Enterococcus faecalis (GC 2691) ([3]; strain GC 2691): 128 µg/mL (≈ 86.5 µM) | MIC Enterococcus faecalis (GC 3059) ([3]; strain GC 3059): 128 µg/mL (≈ 86.5 µM) | MIC Streptococcus agalactiae (GC 4564) [4]: 128 µg/mL (≈ 86.5 µM) | MIC Streptococcus pneumoniae (ATCC 6301) [4]: 128 µg/mL (≈ 86.5 µM) | MIC Streptococcus pneumoniae (GC 1894) [4]: 64 µg/mL (≈ 43.3 µM) | MIC Streptococcus pneumoniae (GC 4565) [4]: 64 µg/mL (≈ 43.3 µM) | MIC Streptococcus pyogenes (GC 4563) [4]: 128 µg/mL (≈ 86.5 µM) | MIC Streptococcus pneumoniae (ATCC 6301) ([4]; strain ATCC 6301): 128 µg/mL (≈ 86.5 µM) | MIC Streptococcus pneumoniae (GC 1894) ([4]; strain GC 1894): 64 µg/mL (≈ 43.3 µM) | MIC Streptococcus pyogenes (GC 4563) ([4]; strain GC 4563): 128 µg/mL (≈ 86.5 µM) | MIC Streptococcus agalactiae (GC 4564) ([4]; strain GC 4564): 128 µg/mL (≈ 86.5 µM) | MIC Streptococcus pneumoniae (GC 4565) ([4]; strain GC 4565): 64 µg/mL (≈ 43.3 µM) | MIC Staphylococcus aureus (ATCC 29213) ([5]; strain ATCC 29213): >128 µg/mL | MIC Staphylococcus aureus (GC 1131) ([5]; strain GC 1131): >128 µg/mL | MIC Staphylococcus aureus (GC 3051) ([5]; strain GC 3051): >128 µg/mL | MIC Staphylococcus aureus (GC 3053) ([5]; strain GC 3053): 128 µg/mL (≈ 86.5 µM) | MIC Staphylococcus aureus (GC 4541) ([5]; strain GC 4541): >128 µg/mL | MIC Staphylococcus aureus (GC 4542) ([5]; strain GC 4542): >128 µg/mL | MIC Staphylococcus aureus-SMITH (GC 4543) ([5]; strain GC 4543): >128 µg/mL | MIC Staphylococcus aureus (GC 4544) ([5]; strain GC 4544): >128 µg/mL | MIC Staphylococcus aureus (GC 4545) ([5]; strain GC 4545): >128 µg/mL | MIC Staphylococcus haemolyticus (GC 4546) ([5]; strain GC 4546): >128 µg/mL | MIC Coagulase Negative Staphylococcus (GC 4547) ([5]; strain GC 4547): 128 µg/mL (≈ 86.5 µM) | MIC Coagulase Negative Staphylococcus (GC 4548) ([5]; strain GC 4548): >128 µg/mL | MIC Coagulase Negative Staphylococcus (GC 4549) ([5]; strain GC 4549): 128 µg/mL (≈ 86.5 µM) | MIC Coagulase Negative Staphylococcus (GC 4551) ([5]; strain GC 4551): >128 µg/mL | MIC Coagulase Negative Staphylococcus (GC 6257) ([5]; strain GC 6257): >128 µg/mL | MIC Escherichia coli (ATCC 25922) [6]: 128 µg/mL (≈ 86.5 µM) | MIC Escherichia coli (GC 4559) [6]: 128 µg/mL (≈ 86.5 µM) | MIC Escherichia coli (GC 4560) [6]: 8 µg/mL (≈ 5.41 µM)
